Test results reported in patent US6706663B2, “Herbicidal 3-heterocyclic substituted benzisothiazole and benzisoxazole compounds” (Wyeth, priority 2000, dated 2004).

How the values were obtained:
[1] = test system: ECHCG (Echinochloa crus-galli); experiment: Postemergence herbicidal evaluation; type: in vivo, (L.) Beau
How it was run: (§1)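 Visual 0–9 injury scores versus control plants, covering stand, vigour, malformation, size, chlorosis and general appearance, taken four to five weeks post-spray and averaged over replicate tests. Plants were sprayed at roughly two weeks old and held on greenhouse benches.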

[2] = test system: TRZAWR (Wheat, Winter, cv Riband); experiment: Postemergence herbicidal evaluation; type: in vivo, Triticum aestivum
How it was run: as §1

GALAP (Galium aparine) = experiment: Preemergence herbicidal evaluation; type: in vivo; details: preemergence, rated 4-5 weeks after treatment
How it was run: (§2)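 Preemergence soil spray, aq. acetone; greenhouse; visual 0–9 score vs control at 4–5 wk.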

SETVI (Setaria viridis) [3] = experiment: Postemergence herbicidal evaluation; type: in vivo, (L.) Beau
How it was run: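 First, seedlings are raised in flats for about two weeks. Next, compound dispersed in 50/50 acetone/water with 0.5% TWEEN 20 is sprayed at 40 psi to deliver about 0.0040–1.000 kg/ha. Plants are then maintained in the greenhouse and rated 0-9 after four to five weeks.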

[4] = test system: ECHORC (Echinochloa oryzoides); experiment: Flooded paddy, preemergence weed control; type: in vivo, Echinochloa oryzoides (Ard.) Fritsch.; details: rated 3-4 weeks after treatment, 0-9 rating scale
How it was run: (§3)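 Seeds or propagules were planted in the top 0.5 cm of silt loam soil and kept flooded 1.5–3 cm above the surface throughout, then held in the greenhouse. Injury was rated visually on a 0–9 scale against untreated controls, covering stand, vigor, malformation, size and chlorosis.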

[5] = test system: IPOHE (Ipomoea hederacea); experiment: Postemergence herbicidal evaluation; type: in vivo, (L.) Jacq.
How it was run: as §1

[6] = test system: CYPSE (Cyperus serotinus); experiment: Flooded paddy, preemergence weed control; type: in vivo, Rottb.; details: rated 3-4 weeks after treatment, 0-9 rating scale
How it was run: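 Seeds or propagules were planted 0.5 cm deep in silt loam and flooded to 1.5–3 cm. Compounds in 50/50 v/v aqueous/acetone were pipetted into the flood water at about 0.0080 to 0.1250 kg/ha. After 3–4 weeks in the greenhouse, effect was rated visually on a 0–9 scale versus untreated control.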

[7] = test system: GLXMAW (Soybean, Williams); experiment: Postemergence herbicidal evaluation; type: in vivo, Glycine max, (L.) Merr. cv Williams
How it was run: as §1

[8] = test system: ECHCG (Echinochloa crus-galli); experiment: Preemergence herbicidal evaluation; type: in vivo, (L.) Beau; details: preemergence, rated 4-5 weeks after treatment
How it was run: as §2

SETVI (Setaria viridis) [9] = experiment: Preemergence herbicidal evaluation; type: in vivo, (L.) Beau; details: preemergence, rated 4-5 weeks after treatment
How it was run: as §2

[10] = test system: AMBEL (Ambrosia artemisifolia); experiment: Preemergence herbicidal evaluation; type: in vivo, L.; details: preemergence, rated 4-5 weeks after treatment
How it was run: as §2

[11] = test system: CHEAL (Chenopodium album); experiment: Preemergence herbicidal evaluation; type: in vivo, L.; details: preemergence, rated 4-5 weeks after treatment
How it was run: as §2

[12] = test system: CASOB (Cassia obtusifolia); experiment: Preemergence herbicidal evaluation; type: in vivo, L.; details: preemergence, rated 4-5 weeks after treatment
How it was run: as §2

ZEAMX (Corn, Field) = experiment: Postemergence herbicidal evaluation; type: in vivo, Zea mays, L.
How it was run: as §1

[13] = test system: ABUTH (Abutilon theophrasti); experiment: Preemergence herbicidal evaluation; type: in vivo, Medic.; details: preemergence, rated 4-5 weeks after treatment
[14] = test system: TRZAWR (Wheat, Winter, cv Riband); experiment: Preemergence herbicidal evaluation; type: in vivo, Triticum aestivum; details: preemergence, rated 4-5 weeks after treatment
How it was run: as §2

ORYSAT (Rice, Tebonnet) [15] = experiment: Preemergence herbicidal evaluation; type: in vivo, Oryza sativa, (L.) Tebonnet; details: preemergence, rated 4-5 weeks after treatment
ORYSAT (Rice, Tebonnet) [16] = experiment: Postemergence herbicidal evaluation; type: in vivo, Oryza sativa, (L.) Tebonnet
How it was run: as §1

[17] = test system: MOOVA (Monochoria vaginalis); experiment: Flooded paddy, preemergence weed control; type: in vivo, Presl.; details: rated 3-4 weeks after treatment, 0-9 rating scale
How it was run: as §3

SMILES: Cn1c(C(F)(F)F)cc(=O)n(-c2ccc3snc(C4SCCN4C(=O)c4ccccc4)c3c2)c1=O (centres unmarked) [Compound 30, 3-benzoyl-2-[5-[3,6-dihydro-3-methyl-2,6-dioxo-4-(trifluoromethyl)-1(2H)-pyrimidinyl]-1,2-benzisothiazol-3-yl]thiazolidine]
- Postemergence herbicidal rating, ECHCG ([1]; rate 0.0320 kg/ha): 0.0
- Postemergence herbicidal rating, ECHCG ([1]; rate 0.0620 kg/ha): 2.0
- Postemergence herbicidal rating, TRZAWR ([2]; rate 0.0320 kg/ha): 4.5
- Postemergence herbicidal rating, TRZAWR ([2]; rate 0.0620 kg/ha): 4.5
- GALAP preemergence herbicidal rating (GALAP (Galium aparine); Rate 0.0620 kg/ha): 0.0
- GALAP preemergence herbicidal rating (GALAP (Galium aparine); Rate 0.1250 kg/ha): 7.0
- GALAP preemergence herbicidal rating (GALAP (Galium aparine); Rate 0.2500 kg/ha): 9.0
- Postemergence herbicidal rating, SETVI (SETVI (Setaria viridis) [3]; rate 0.0320 kg/ha): 0.0
- Postemergence herbicidal rating, SETVI (SETVI (Setaria viridis) [3]; rate 0.0620 kg/ha): 4.0
- herbicidal rating, ECHORC ([4]; rate 0.0080 kg/ha): 3.0
- herbicidal rating, ECHORC ([4]; rate 0.0320 kg/ha): 4.0
- herbicidal rating, ECHORC ([4]; rate 0.1250 kg/ha): 9.0
- Postemergence herbicidal rating, IPOHE ([5]; rate 0.0320 kg/ha): 7.0
- Postemergence herbicidal rating, IPOHE ([5]; rate 0.0620 kg/ha): 9.0
- herbicidal rating, CYPSE ([6]; rate 0.0320 kg/ha): 0.0
- herbicidal rating, CYPSE ([6]; rate 0.1250 kg/ha): 3.0
- Postemergence herbicidal rating, GLXMAW ([7]; rate 0.0320 kg/ha): 6.0
- Postemergence herbicidal rating, GLXMAW ([7]; rate 0.0620 kg/ha): 6.5
- ECHCG preemergence herbicidal rating ([8]; Rate 0.0620 kg/ha): 0.0
- ECHCG preemergence herbicidal rating ([8]; Rate 0.1250 kg/ha): 4.0
- ECHCG preemergence herbicidal rating ([8]; Rate 0.2500 kg/ha): 5.0
- SETVI preemergence herbicidal rating (SETVI (Setaria viridis) [9]; Rate 0.0620 kg/ha): 1.0
- SETVI preemergence herbicidal rating (SETVI (Setaria viridis) [9]; Rate 0.1250 kg/ha): 8.0
- SETVI preemergence herbicidal rating (SETVI (Setaria viridis) [9]; Rate 0.2500 kg/ha): 9.0
- AMBEL preemergence herbicidal rating ([10]; Rate 0.0620 kg/ha): 4.5
- AMBEL preemergence herbicidal rating ([10]; Rate 0.1250 kg/ha): 7.5
- AMBEL preemergence herbicidal rating ([10]; Rate 0.2500 kg/ha): 9.0
- CHEAL preemergence herbicidal rating ([11]; Rate 0.0620 kg/ha): 9.0
- CHEAL preemergence herbicidal rating ([11]; Rate 0.1250 kg/ha): 9.0
- CHEAL preemergence herbicidal rating ([11]; Rate 0.2500 kg/ha): 9.0
- CASOB preemergence herbicidal rating ([12]; Rate 0.0620 kg/ha): 0.0
- CASOB preemergence herbicidal rating ([12]; Rate 0.1250 kg/ha): 1.5
- CASOB preemergence herbicidal rating ([12]; Rate 0.2500 kg/ha): 3.0
- Postemergence herbicidal rating, ZEAMX (ZEAMX (Corn, Field); rate 0.0320 kg/ha): 4.5
- Postemergence herbicidal rating, ZEAMX (ZEAMX (Corn, Field); rate 0.0620 kg/ha): 6.0
- ABUTH preemergence herbicidal rating ([13]; Rate 0.0620 kg/ha): 9.0
- ABUTH preemergence herbicidal rating ([13]; Rate 0.1250 kg/ha): 9.0
- ABUTH preemergence herbicidal rating ([13]; Rate 0.2500 kg/ha): 9.0
- TRZAWR preemergence herbicidal rating ([14]; Rate 0.0620 kg/ha): 0.0
- TRZAWR preemergence herbicidal rating ([14]; Rate 0.1250 kg/ha): 2.0
- TRZAWR preemergence herbicidal rating ([14]; Rate 0.2500 kg/ha): 6.0
- ORYSAT preemergence herbicidal rating (ORYSAT (Rice, Tebonnet) [15]; Rate 0.0620 kg/ha): 0.0
- ORYSAT preemergence herbicidal rating (ORYSAT (Rice, Tebonnet) [15]; Rate 0.1250 kg/ha): 0.0
- ORYSAT preemergence herbicidal rating (ORYSAT (Rice, Tebonnet) [15]; Rate 0.2500 kg/ha): 1.0
- Postemergence herbicidal rating, ORYSAT (ORYSAT (Rice, Tebonnet) [16]; rate 0.0320 kg/ha): 2.0
- Postemergence herbicidal rating, ORYSAT (ORYSAT (Rice, Tebonnet) [16]; rate 0.0620 kg/ha): 3.0
- herbicidal rating, MOOVA ([17]; rate 0.0080 kg/ha): 0.0
- herbicidal rating, MOOVA ([17]; rate 0.0320 kg/ha): 8.5
- herbicidal rating, MOOVA ([17]; rate 0.1250 kg/ha): 9.0

SMILES: Cn1c(C(F)(F)F)cc(=O)n(-c2ccc3snc(C4OCCS4)c3c2)c1=O (centres unmarked) [Compound 31, 1-methyl-3-[3-(1,3-oxathiolan-2-yl)-1,2-benzisothiazol-5-yl]-6-(trifluoromethyl)uracil]
- Postemergence herbicidal rating, ECHCG ([1]; rate 0.0320 kg/ha): 2.0
- Postemergence herbicidal rating, ECHCG ([1]; rate 0.0620 kg/ha): 2.0
- Postemergence herbicidal rating, TRZAWR ([2]; rate 0.0320 kg/ha): 5.0
- Postemergence herbicidal rating, TRZAWR ([2]; rate 0.0620 kg/ha): 5.5
- GALAP preemergence herbicidal rating (GALAP (Galium aparine); Rate 0.0620 kg/ha): 5.0
- GALAP preemergence herbicidal rating (GALAP (Galium aparine); Rate 0.1250 kg/ha): 9.0
- GALAP preemergence herbicidal rating (GALAP (Galium aparine); Rate 0.2500 kg/ha): 9.0
- Postemergence herbicidal rating, SETVI (SETVI (Setaria viridis) [3]; rate 0.0320 kg/ha): 3.0
- Postemergence herbicidal rating, SETVI (SETVI (Setaria viridis) [3]; rate 0.0620 kg/ha): 7.0
- herbicidal rating, ECHORC ([4]; rate 0.0080 kg/ha): 3.0
- herbicidal rating, ECHORC ([4]; rate 0.0320 kg/ha): 8.0
- herbicidal rating, ECHORC ([4]; rate 0.1250 kg/ha): 9.0
- Postemergence herbicidal rating, IPOHE ([5]; rate 0.0320 kg/ha): 9.0
- Postemergence herbicidal rating, IPOHE ([5]; rate 0.0620 kg/ha): 9.0
- herbicidal rating, CYPSE ([6]; rate 0.0320 kg/ha): 4.0
- herbicidal rating, CYPSE ([6]; rate 0.1250 kg/ha): 5.0
- Postemergence herbicidal rating, GLXMAW ([7]; rate 0.0320 kg/ha): 8.5
- Postemergence herbicidal rating, GLXMAW ([7]; rate 0.0620 kg/ha): 9.0
- ECHCG preemergence herbicidal rating ([8]; Rate 0.0620 kg/ha): 4.7
- ECHCG preemergence herbicidal rating ([8]; Rate 0.1250 kg/ha): 8.7
- ECHCG preemergence herbicidal rating ([8]; Rate 0.2500 kg/ha): 9.0
- SETVI preemergence herbicidal rating (SETVI (Setaria viridis) [9]; Rate 0.0620 kg/ha): 7.7
- SETVI preemergence herbicidal rating (SETVI (Setaria viridis) [9]; Rate 0.1250 kg/ha): 9.0
- SETVI preemergence herbicidal rating (SETVI (Setaria viridis) [9]; Rate 0.2500 kg/ha): 9.0
- AMBEL preemergence herbicidal rating ([10]; Rate 0.0620 kg/ha): 9.0
- AMBEL preemergence herbicidal rating ([10]; Rate 0.1250 kg/ha): 9.0
- AMBEL preemergence herbicidal rating ([10]; Rate 0.2500 kg/ha): 9.0
- CHEAL preemergence herbicidal rating ([11]; Rate 0.0620 kg/ha): 9.0
- CHEAL preemergence herbicidal rating ([11]; Rate 0.1250 kg/ha): 9.0
- CHEAL preemergence herbicidal rating ([11]; Rate 0.2500 kg/ha): 9.0
- CASOB preemergence herbicidal rating ([12]; Rate 0.0620 kg/ha): 5.0
- CASOB preemergence herbicidal rating ([12]; Rate 0.1250 kg/ha): 8.0
- CASOB preemergence herbicidal rating ([12]; Rate 0.2500 kg/ha): 9.0
- Postemergence herbicidal rating, ZEAMX (ZEAMX (Corn, Field); rate 0.0320 kg/ha): 5.5
- Postemergence herbicidal rating, ZEAMX (ZEAMX (Corn, Field); rate 0.0620 kg/ha): 5.5
- ABUTH preemergence herbicidal rating ([13]; Rate 0.0620 kg/ha): 8.3
- ABUTH preemergence herbicidal rating ([13]; Rate 0.1250 kg/ha): 9.0
- ABUTH preemergence herbicidal rating ([13]; Rate 0.2500 kg/ha): 9.0
- TRZAWR preemergence herbicidal rating ([14]; Rate 0.0620 kg/ha): 7.0
- TRZAWR preemergence herbicidal rating ([14]; Rate 0.1250 kg/ha): 8.0
- TRZAWR preemergence herbicidal rating ([14]; Rate 0.2500 kg/ha): 9.0
- ORYSAT preemergence herbicidal rating (ORYSAT (Rice, Tebonnet) [15]; Rate 0.0620 kg/ha): 4.0
- ORYSAT preemergence herbicidal rating (ORYSAT (Rice, Tebonnet) [15]; Rate 0.1250 kg/ha): 7.7
- ORYSAT preemergence herbicidal rating (ORYSAT (Rice, Tebonnet) [15]; Rate 0.2500 kg/ha): 8.5
- Postemergence herbicidal rating, ORYSAT (ORYSAT (Rice, Tebonnet) [16]; rate 0.0320 kg/ha): 3.5
- Postemergence herbicidal rating, ORYSAT (ORYSAT (Rice, Tebonnet) [16]; rate 0.0620 kg/ha): 5.5
- herbicidal rating, MOOVA ([17]; rate 0.0080 kg/ha): 5.0
- herbicidal rating, MOOVA ([17]; rate 0.0320 kg/ha): 9.0
- herbicidal rating, MOOVA ([17]; rate 0.1250 kg/ha): 9.0
